This assay relates to carcinoid syndrome and/or at least one neuroendocrine tumor. In words: treatment of a human patient with epothilone B (Example 1). The assay is classed as in vivo. The protocol:
A human patient experiencing 3 loose bowel movements each day, frequent nausea and anorexia presented a plasma serotonin level of 361 ng/ml and an octreotide scan showing foci of abnormal activity in the pelvis, liver, upper chest and neck. They received 2.5 mg/m^2 of epothilone B weekly every 3 of 4 weeks.

Turning to `C/C(=C\c1csc(C)n1)[C@@H]1C[C@@H]2O[C@]2(C)CCC[C@H](C)[C@H](O)[C@@H](C)C(=O)C(C)(C)[C@@H](O)CC(=O)O1` [epothilone B], the octreotide scan result runs as follows: (2.5 mg/m^2 weekly every 3 of 4 weeks, after 6 doses plus further about two months) “no evidence of disease”; (2.5 mg/m^2 weekly every 3 of 4 weeks, after 6 doses, before treatment foci in pelvis, liver, upper chest and neck) “minimal focus of activity in the pelvis alone”. Further, the “tumor burden of the patient” value (conclusion drawn from the observations in Example 1 ('make it likely')) was “significantly decreased”. Also, under “patient, 2.5 mg/m^2 weekly every 3 of 4 weeks, 6 doses plus further about two months, level before treatment 361 ng/ml, within normal limits”, the plasma serotonin level was 62 ng/mL.

Source of the values: patent US20090246172A1, “COMPOSITIONS COMPRISING EPOTHILONES AND THEIR USE FOR THE TREATMENT OF CARCINOID SYNDROME” (priority 2001, published 2009).
